Measured values: patent EP0004894A1, “Fertilizer for providing plants with iron” (BAYER AG, priority 1978, dated 1979)

Experiments:
[1] = system: Chrysanthemum indicum (Sorte: Yellow Delaware); assay: Iron deficiency control / leaf uptake test (Eisenmangel-Bekämpfung / Blattaufnehmbarkeits-Test); format: in vivo; conditions: for Intenistät der Grünfärbung junger Blätter / Ø Anzahl neu gebildeter Blätter: sprayed twice on fully chlorotic plants
From the text: Eisenmangel-Bekämpfung / Blattaufnehmbarkeits-Test
In einem Kultursubstrat der oben angegebenen Zusammensetzung werden Versuchspflanzen angezogen, wobei die Dünung und die Bewässerung dadurch erfolgt, daß man zweimal wöchentlich eine mineralische Eisenmangel-Nährlösung nach Hoagland und Arnon (Circular 347, College of Agriculture, University of California, Berkeley 1950) hinzugibt. Die so angezogenen völlig chlorotischen Versuchspflanzen werden in Fünfblattstadium mit der Wirkstoffzubereitung tropfnaß besprüht, wobei durch Abdecken dafür gesorgt wird, daß die Wirkstoffzubereitung nicht in das Kultursubstrat gelangt. Nach 2 Tagen wird erneut in gleicher Weise mit der Wirkstoffzubereitung besprüht. Die Auswertung erfolgt dann, wenn bei den mit einem wasserlöslichen, handelsüblichen Eisen-Dünger in optimaler Menge behandelten Pflanzen durchschnittlich 3 Blätter neu gebildet sind. Es wird jeweils die durchschnittliche Anzahl neu gebildeteter Blätter bei allen Versuchspflanzen ermittelt. Ferner wird die Intensität der Grünfärbung von neu gebildeten Blättern bonitiert und durch Kennzahlen ausgedrückt.

[2] = Water solubility of the preparation; format: physicochemical
[3] = 0,1 % preparation in spray liquid
[4] = 0,02 % preparation in spray liquid
[5] = 0,5 % preparation in spray liquid

| Compound | Intenistät der Grünfärbung junger Blätter [1, 3] | Ø Anzahl neu gebildeter Blätter [1, 3] | Intenistät der Grünfärbung junger Blätter [1, 4] | Ø Anzahl neu gebildeter Blätter [1, 4] | Intenistät der Grünfärbung junger Blätter [1, 5] | Ø Anzahl neu gebildeter Blätter [1, 5] | Wasserlöslichkeit des Präparates [2] | Eisenmangel ([1]; fully chlorotic Chrysanthemum indicum, Sorte Yellow Delaware) |
| --- | --- | --- | --- | --- | --- | --- | --- | --- |
| CCC(=O)c1cc[cH-]c1.[Fe+2].c1cc[cH-]c1 [Propionylferrocen, reference compound] | 3 (25 %-ig chlorotisch) | 4 | 8 | 3 | 2 | 5 | gering | – |
| CC(CC(=O)[c-]1cccc1)CC(C)(C)C.[Fe+2].c1cc[cH-]c1 (stereo not drawn) [3,5,5-Trimethylhexanoyl-ferrocen] | 2 | 5 | 3 (25 %-ig chlorotisch) | 4 | 1 (0 %-ig chlorotisch (dunkelgrün)) | 7 | gering | stark verringern oder sogar völlig beheben |
